Experimental data taken from publication PMC5762859, “Distribution analysis of epertinib in brain metastasis of HER2-positive breast cancer by imaging mass spectrometry and prospect for antitumor activity” (Scientific Reports, 2018).
Like-named read-outs stand apart in the source and are kept apart here.

Experiments:
P-glycoprotein (P-gp) [1] = biological target: T1, P-glycoprotein (P-gp) (Homo sapiens, UniProt P08183); assay: P-gp substrate assessment; format: in vitro ADME; settings: from permeability and efflux ratio across Caco-2 cell monolayers
T1 construct: permeability and efflux ratio of epertinib across Caco-2 cell monolayers; endogenous in cells; host or cells: Caco-2
T1 sequence (P08183 whole entry): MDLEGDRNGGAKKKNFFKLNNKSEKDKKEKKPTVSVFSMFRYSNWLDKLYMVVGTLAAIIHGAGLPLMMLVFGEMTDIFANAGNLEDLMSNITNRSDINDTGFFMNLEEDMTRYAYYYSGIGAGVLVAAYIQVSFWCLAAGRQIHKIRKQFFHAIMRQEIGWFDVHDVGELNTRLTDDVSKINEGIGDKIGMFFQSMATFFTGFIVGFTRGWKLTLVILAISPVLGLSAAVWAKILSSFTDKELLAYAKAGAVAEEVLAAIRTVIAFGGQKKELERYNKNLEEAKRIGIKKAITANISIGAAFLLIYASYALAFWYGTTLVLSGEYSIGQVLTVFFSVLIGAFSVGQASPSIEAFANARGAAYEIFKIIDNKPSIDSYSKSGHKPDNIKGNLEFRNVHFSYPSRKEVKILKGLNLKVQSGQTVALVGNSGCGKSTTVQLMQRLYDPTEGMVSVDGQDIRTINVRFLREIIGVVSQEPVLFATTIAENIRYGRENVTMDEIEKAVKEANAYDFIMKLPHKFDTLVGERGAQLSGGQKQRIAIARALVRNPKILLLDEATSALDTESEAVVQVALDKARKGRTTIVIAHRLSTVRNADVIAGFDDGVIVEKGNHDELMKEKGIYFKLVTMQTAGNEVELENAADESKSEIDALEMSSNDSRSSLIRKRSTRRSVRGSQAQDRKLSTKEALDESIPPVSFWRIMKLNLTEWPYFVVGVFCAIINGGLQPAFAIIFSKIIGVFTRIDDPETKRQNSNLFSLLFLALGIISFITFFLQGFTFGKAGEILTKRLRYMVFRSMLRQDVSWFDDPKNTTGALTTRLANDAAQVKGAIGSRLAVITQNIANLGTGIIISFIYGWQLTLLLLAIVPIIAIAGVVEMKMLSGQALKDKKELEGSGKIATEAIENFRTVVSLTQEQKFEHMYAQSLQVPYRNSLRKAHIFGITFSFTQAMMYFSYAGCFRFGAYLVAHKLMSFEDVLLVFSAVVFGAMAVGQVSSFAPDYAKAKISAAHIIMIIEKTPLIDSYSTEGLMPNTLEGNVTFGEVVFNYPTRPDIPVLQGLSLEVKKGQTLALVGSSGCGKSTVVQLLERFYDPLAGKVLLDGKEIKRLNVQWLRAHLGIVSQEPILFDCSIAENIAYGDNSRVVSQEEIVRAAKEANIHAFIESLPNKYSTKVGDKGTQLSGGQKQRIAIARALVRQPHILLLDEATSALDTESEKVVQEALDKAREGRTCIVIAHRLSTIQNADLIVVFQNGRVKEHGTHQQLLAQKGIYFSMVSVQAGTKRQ

MDA-MB-361 = assay: Mammary fat pad implantation model, antitumor activity; format: in vivo, mice; settings: Mus musculus, 672 h; MDA-MB-361 in mammary fat pad, oral daily for 28 days
Description: (§1) We evaluated the inhibitory activity of epertinib on the in vitro growth of the parental cell line, MDA-MB-361. […] To compare the growth inhibitory activity of epertinib on the parental and metastatic (BR2) cell lines, we evaluated the antitumor activity of epertinib in both cell lines. […] To confirm the antitumor activity of epertinib in the IVM, we examined the effect of epertinib on the IVM transplanted BR2.
(§2) Figure 6 In vivo antitumor activity of epertinib in the breast cancer IVM. Epertinib inhibits the growth of breast cancer in animal models. In each animal model, vehicle or indicated doses of epertinib were orally administered daily. Tumor volume was measured twice or thrice weekly and the mean tumor volume with SD is represented by each data point. Human breast cancer cells, MDA-MB-361 (A) or MDA-MB-361-luc-BR2 (B) was implanted orthotopically into the mammary fat pad of mice. Tumor-bearing mice were treated for 28 days (A and B). Tumor growth in the breast cancer IVM ([…]) was monitored by the photons emitted from the tumor as an indicator, which was measured with an IVIS Imaging System 200 (Caliper Life Sciences). […] The photons were measured once or twice weekly and the mean photons/sec with SD are presented at each data point (n = 3 for vehicle, n = 4 for 50 mg/kg of epertinib) (C). […]

MDA-MB-361-luc-BR2 = assay: as above; format: in vivo, mice; settings: Mus musculus, 672 h; BR2 in mammary fat pad, oral daily for 28 days
Description: as §1, §2

[2] = Plasma radioactivity and epertinib after single oral [14C]-epertinib hydrochloride in rats; format: in vivo
Description: We used quantitative IMS to analyze and compare the distribution of epertinib and lapatinib in brain metastasis. IMS can simultaneously detect diverse molecules and obtain spatial distribution information capable of distinguishing between a drug and its metabolites in tissue sections[21],[35]. Historically, drug metabolism and pharmacokinetic studies have used radiolabels to perform autoradiography and obtain information about tissue distribution. Previously, plasma concentrations of radioactivity and epertinib were determined after a single oral administration of [^14C]-epertinib hydrochloride at a dose of 5 mg/kg (as epertinib) in rats (Supplementary Fig. S3). […] The AUC0–12 h and AUCinf values were 126 ± 18 and 392 ± 316 ng·h/mL, respectively. The plasma epertinib/radioactivity concentration ratio ranged from 10.9% to 16.2% through the measurable points, and the AUCinf ratio was ~20.8 ± 15.0%.
Supplementa ry Figure S3. Concentration of radioactivity and epertinib in plasma after single oral administration of [14C]-epertinib hydrochloride to non-f as ti ng male rats (dose: 5 mg as epertinib /kg)
Data ar e ex pressed as the mean values + SD o f fou r animals.
(1 picture or pasted object on this page, not shown here)

[3] = tested on: experimental brain metastasis of HER2-positive breast cancer (IVM); assay: Antitumor activity in the breast cancer IVM (bioluminescence); format: in vivo, mice; settings: once daily oral 50 mg/kg, 30 days, photons emitted from tumor
Description: as §1, §2

HER2 = tested on: HER2; design: method as in PMID 24837299; settings: cited from earlier work
[4] = biological target: T2, breast cancer resistance protein (BCRP) (Homo sapiens, UniProt Q9UNQ0); assay: BCRP substrate assessment; format: in vitro ADME; settings: from permeability and efflux ratio across Caco-2 cell monolayers
T2 construct: permeability and efflux ratio of epertinib across Caco-2 cell monolayers; endogenous in cells; host or cells: Caco-2
T2 sequence (Q9UNQ0 1-655): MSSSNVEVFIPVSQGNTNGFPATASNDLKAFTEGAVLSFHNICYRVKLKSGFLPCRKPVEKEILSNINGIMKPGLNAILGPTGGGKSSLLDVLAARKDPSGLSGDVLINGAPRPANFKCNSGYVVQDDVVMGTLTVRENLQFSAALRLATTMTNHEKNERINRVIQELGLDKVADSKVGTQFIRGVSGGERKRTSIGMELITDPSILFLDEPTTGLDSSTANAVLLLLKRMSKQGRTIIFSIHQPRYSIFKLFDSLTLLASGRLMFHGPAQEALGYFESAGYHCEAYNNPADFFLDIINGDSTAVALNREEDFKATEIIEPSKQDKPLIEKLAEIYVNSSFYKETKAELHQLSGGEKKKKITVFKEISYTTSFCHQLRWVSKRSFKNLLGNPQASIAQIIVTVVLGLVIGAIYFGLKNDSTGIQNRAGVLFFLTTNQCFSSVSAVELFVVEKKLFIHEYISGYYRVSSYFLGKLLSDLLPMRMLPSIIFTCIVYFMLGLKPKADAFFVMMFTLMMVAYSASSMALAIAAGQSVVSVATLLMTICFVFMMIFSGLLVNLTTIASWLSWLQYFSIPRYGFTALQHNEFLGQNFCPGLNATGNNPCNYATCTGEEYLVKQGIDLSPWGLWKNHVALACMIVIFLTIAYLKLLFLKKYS

P-glycoprotein (P-gp) [5] = biological target: T1, P-glycoprotein (P-gp); settings: cited from earlier work
[6] = tested on: albumin and α-1 acid glycoprotein; design: method as in PMID 25547867; settings: cited from earlier work
[7] = healthy volunteers, single oral 250 mg [14C]-lapatinib; cited from earlier work
[8] = tested on: HER2-positive metastatic breast cancer patients; settings: historical data, combination with trastzumab; cited from earlier work
[9] = biological target: T2, breast cancer resistance protein (BCRP); settings: cited from earlier work

CC#CC(=NOCC1COCCN1)c1ccc2ncnc(Nc3ccc(OCc4cccc(F)c4)c(Cl)c3)c2c1 (stereo not shown) [Epertinib]
P-gp substrate (P-glycoprotein (P-gp) [1]): not a substrate | ED50 (MDA-MB-361): 24.1 mg/kg | ED50 (MDA-MB-361-luc-BR2): 26.5 mg/kg | Epertinib/radioactivity AUCinf ratio [2]: ~ 20.8 ± 15.0% | AUC(0-t) ([2]; male, rat, plasma, single oral 5 mg/kg [14C]-epertinib hydrochloride, read-out: AUC0–12 h of epertinib): 126 ± 18 ng·h/mL | AUC(0-inf) ([2]; male, rat, plasma, single oral 5 mg/kg [14C]-epertinib hydrochloride, read-out: AUCinf of epertinib): 392 ± 316 ng·h/mL | Cmax ([2]; male, rat, plasma, single oral 5 mg/kg [14C]-epertinib hydrochloride, read-out: Plasma concentration of epertinib, Cmax): 14.1 ± 3.6 ng/mL | Time of Cmax of plasma epertinib ([2]; single oral 5 mg/kg [14C]-epertinib hydrochloride): 5.00 ± 1.15 h | Effect on brain tumor volume [3]: significantly reduced the brain tumor volume | Off-rate of dissociation compared with lapatinib (HER2): slower off-rate of dissociation | BCRP substrate [4]: not a substrate

CS(=O)(=O)CCNCc1ccc(-c2ccc3ncnc(Nc4ccc(OCc5cccc(F)c5)c(Cl)c4)c3c2)o1 [Lapatinib, N-{3-chloro-4-[(3-fluorobenzyl)oxy]phenyl}-6-[5-({[2-(methylsulfonyl)ethyl]amino}methyl)-2-furyl]-4-quinazolinamine, reference compound]
P-gp substrate (P-glycoprotein (P-gp) [5]): substrates | Binding to albumin and α-1 acid glycoprotein [6]: > 99.9% | Mean plasma concentration of lapatinib at Cmax [7]: 330 ng/mL | Objective response rate (ORR) [8]: 10.3% | BCRP substrate [9]: substrates
